Test results reported in publication PMC7363588, “Mapping of the FGF14:Nav1.6 complex interface reveals FLPK as a functionally active peptide modulating excitability” (Physiological Reports, 2020).
Values joined by “and” are separate entries in the source; they are usually repeats but may differ in a detail not shown here. Equal values may be shown once. “Also recorded” adds a separate entry of the source. Marks after values point to notes of the source that are not given here. Peptide text beside a SMILES is read from it.

Legend:
[1] = target: T1, Nav1.6 in the presence of FGF14 (FGF14-1b-GFP) (Homo sapiens, UniProt Q92915); assay: Whole-cell patch-clamp, HEK-Nav1.6 cells expressing FGF14-GFP; format: cell-based; details: 50 μM FLPK
T1 construct: expressed in transfected cells
T1 sequence (Q92915 1-252 isoform Q92915-2): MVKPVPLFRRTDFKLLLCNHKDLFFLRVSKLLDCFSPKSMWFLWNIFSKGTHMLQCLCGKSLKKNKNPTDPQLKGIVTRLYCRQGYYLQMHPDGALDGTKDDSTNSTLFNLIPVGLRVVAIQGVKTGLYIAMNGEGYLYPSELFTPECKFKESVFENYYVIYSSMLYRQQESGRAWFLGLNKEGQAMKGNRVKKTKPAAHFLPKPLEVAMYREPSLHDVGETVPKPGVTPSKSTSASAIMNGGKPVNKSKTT
From the text: (§1) Plasmids used in this study derived from the following clones: human FGF14‐1b isoform (accession number: NM_175929.2) and human Nav1.6 (accession number: NM_014191.3). The CLuc‐FGF14, CD4‐Nav1.6‐NLuc, constructs and the pcDNA3.1 vector (Invitrogen, Carlsbad, CA) were engineered and characterized as previously described (Goetz et al., 2009; Shavkunov et al., 2012,2013,2015; Ali et al., 2016, 2018; Wadsworth et al., 2019). The plasmid pGL3 expressing full length Firefly (Photinus pyralis) luciferase was a gift from Dr. P. Sarkar (Department of Neurology, UTMB). For protein purification studies, cDNAs encoding FGF14‐1b (accession number NP_787125; aa 64–252) or the C‐terminal tail of Nav1.6 (accession number #NP_001171455; aa 1756–1939) were subcloned into suitable pET bacterial expression vectors (pET28a‐FGF14; pET30a‐Nav1.6) with a 6X His‐tag at the N‐terminal site; these plasmids were a gift of Dr. Moosa Mohammadi (NYU, Langone Medical Center). The mutation coding for FGF14^V160A was generated by site‐directed mutagenesis and PCR using FGF14‐1b as a template described previously (Ali et al., 2016). For electrophysiological studies FGF14‐GFP (human) and FGF14‐ΔNT‐GFP (human) were cloned into the GFP plasmid (pQBI‐fC2; Quantum Biotechnology Inc., Montreal, Canada) as previously described.
(§2) HEK293 cells were maintained in DMEM and F‐12 (Invitrogen, Carlsbad, CA), supplemented with 0.05% glucose, 0.5 mM pyruvate, 10% fetal bovine serum, 100 units/ml penicillin, and 100 µg/ml streptomycin (Invitrogen), and incubated at 37 °C with 5% CO2. HEK293 cells stably expressing the human Nav1.6 channel (hereafter referred to as HEK‐Nav1.6 cells) were maintained similarly except for the addition of 500 μg/ml G418 (Invitrogen) to maintain stable Nav1.6 expression. Cells were transfected at 80%–90% confluence with equal amount (1 μg each) of plasmid pairs using Lipofectamine 2000 (Invitrogen) according to manufacturer's instructions. HEK‐Nav1.6 cells were washed and replated at very low density prior to electrophysiological recordings (Ali et al., 2016, 2018; Scala et al., 2018; Wadsworth et al., 2019).
(§3) HEK‐Nav1.6 cells transfected with GFP or FGF14‐GFP were plated at low density on glass cover slips for 3–4 hr and subsequently transferred to the recording chamber. Recordings were performed at room temperature (20–22°C) 24 hr posttransfection using a MultiClamp 700B amplifier (Molecular Devices, Sunnyvale, CA). The composition of recording solutions consisted of the following salts; extracellular (mM): 140 NaCl, 3 KCl, 1 MgCl2, 1 CaCl2, 10 HEPES, 10 glucose, pH 7.3; intracellular (mM): 130 CH3O3SCs, 1 EGTA, 10 NaCl, 10 HEPES, pH 7.3. Membrane capacitance and series resistance were estimated by the dial settings on the amplifier and compensated for electronically by 70%–75%. Data were acquired at 20 kHz and filtered at 5 kHz prior to digitization and storage. All experimental parameters were controlled by Clampex 9.2 software (Molecular Devices) and interfaced to the electrophysiological equipment using a Digidata 1,200 analog‐digital interface (Molecular Devices). Voltage‐dependent inward currents for HEK‐Nav1.6 cells were evoked by depolarization to test potentials between −100 mV and +60 mV from a holding potential of −70 mV followed by a voltage prestep pulse of −120 mV (Nav1.6). Steady‐state (fast) inactivation of Nav channels was measured with a paired‐pulse protocol. From the holding potential, cells were stepped to varying test potentials between −120 mV (Nav1.6) and +20 mV (prepulse) prior to a test pulse to −20 mV.
(§4) Current densities were obtained by dividing Na^+ current (INa) amplitude by membrane capacitance. Current–voltage relationships were generated by plotting current density as a function of the […]. Conductance (GNa) was calculated by the following equation: GNa=INa/Vm‐Erev where INa ^+ is the current amplitude at voltage Vm, and Erev is the Na^+ reversal potential. […]

[2] = system: Nav1.6 in the presence of FGF14-ΔNT-GFP; assay: Whole-cell patch-clamp, HEK-Nav1.6 cells expressing FGF14-ΔNT-GFP; format: cell-based, human; details: 50 μM FLPK
From the text: as §1, §2, §3, §4

CC(=O)N[C@@H](Cc1ccccc1)C(=O)N[C@@H](CC(C)C)C(=O)N1CCC[C@H]1C(=O)N[C@@H](CCCCN)C(N)=O [FLPK] (Ac-FLPK-NH2)
Peak density (I Na) ([1]; FGF14-GFP, at −10 mV, mean ± SEM (n = 21), DMSO −16.8 ± 3.3, p < .05 vs FGF14-GFP (DMSO)): −49.6 ± 7.2 pA/pF and −49.6 ± 7.2 (21) ^c pA/pF
Kact ([1]; FGF14-GFP, mean ± SEM (n = 11), DMSO 5.7 ± 0.4): 5.7 ± 0.5 (11) ^h,i mV
Activation (V1/2) ([1]; FGF14-GFP, mean ± SEM (n = 11), DMSO −16.6 ± 1.0): −20.8 ± 1.5 mV and −20.8 ± 1.5 (11) mV
Steady-state Inactivation (V1/2) ([1]; FGF14-GFP, mean ± SEM (n = 11 in Table 3; n = 14 in text), DMSO −54.9 ± 1.1): −59.2 ± 2.1 (11) mV
Kinact ([1]; FGF14-GFP, mean ± SEM (n = 14), DMSO 5.9 ± 0.9): 5.9 ± 0.6 (14) mV
shift of V1/2 of activation vs DMSO control ([1]; FGF14 wild type, hyperpolarizing direction): −4 mV
effect on FGF14-dependent phenotypes of Nav1.6 currents ([1]; HEK-Nav1.6 FGF14-GFP): effectively restored I Na to values that were statistically comparable to the GFP + DMSO control; also recorded: inhibited previously reported modulatory effects of FGF14 (1b isoform) on Nav1.6 currents
effect on Nav1.6 currents in absence of FGF14 N-terminal domain ([2]; FGF14-ΔNT-GFP): insensitive to FLPK; also recorded: no effects on any other parameters associated with FGF14‐GFP regulation; also recorded: unaffected by FLPK
Tau (τ), decay time constant of I Na ([2]; ΔNT-FGF14-GFP, at −10 mV, mean ± SEM (n = 11), DMSO 1.091 ± 0.07): 1.137 ± 0.08 (11) ms
Kact ([2]; ΔNT-FGF14-GFP, mean ± SEM (n = 11), DMSO 4.61 ± 0.3): 1.63 ± 0.23 (11) mV
Kinact ([2]; ΔNT-FGF14-GFP, mean ± SEM (n = 11), DMSO 6.4 ± 0.44): 6.75 ± 0.32 (11) mV
Activation (V1/2) ([2]; ΔNT-FGF14-GFP, mean ± SEM (n = 11), DMSO –21.2 ± 0.36, p < .001): –37.43 ± 0.3 (11) ^ l , ^ o,p,q mV
Steady-state Inactivation (V1/2) ([2]; ΔNT-FGF14-GFP, mean ± SEM (n = 11), DMSO –70.2 ± 0.53): –68.3 ± 0.34 (11) ^o,p,q mV
